Measured values taken from the CheMixHub ionic liquid set.

Experiment: xn = mol fraction of the nth substance listed

CC[n+]1ccn(C)c1.COS(=O)(=O)[O-] + CCCO
viscosity [mPa·s], 101 kPa
Conditions | 283.15 K | 293.15 K | 303.15 K | 313.15 K | 323.15 K
x1 = 0.0562 | 3.83 | 3 | 2.38 | 1.93 | 1.58
x1 = 0.1123 | 5.02 | 3.88 | 3.06 | 2.47 | 2.02
x1 = 0.2201 | 8.55 | 6.43 | 4.9 | 3.82 | 3.15
x1 = 0.3272 | 12.73 | 9.53 | 7.27 | 5.71 | 4.62
x1 = 0.4282 | 19.32 | 14.17 | 10.7 | 8.3 | 6.6
x1 = 0.5272 | 29.1 | 20.65 | 15.24 | 11.61 | 9.06
x1 = 0.6285 | 40.72 | 27.29 | 19.7 | 14.77 | 11.43
x1 = 0.7255 | 56.5 | 37.58 | 27.45 | 20.14 | 15.3
x1 = 0.8203 | 82.4 | 52.7 | 35.86 | 26.65 | 19.78
x1 = 0.9091 | 104.9 | 63.6 | 42.77 | 30.19 | 22.2
x1 = 0.954 | 127.2 | 77 | 50.3 | 35.02 | 25.63
x1 = 1 | 141 | 84.1 | 57.9 | 39.54 | 28.33

c1nnn[nH]1 + CCCC[P+](CCCC)(CCCC)CCCC.[Cl-] + [N]=O
303.15 K, 101.3 kPa
Conditions | viscosity [mPa·s]
x1 = 0.2439, x2 = 0.2439 | 3.1
x1 = 0.2518, x2 = 0.2518 | 4
x1 = 0.2597, x2 = 0.2597 | 4
x1 = 0.2723, x2 = 0.2723 | 6
x1 = 0.2867, x2 = 0.2867 | 9.2

CCCC[N+](CCCC)(CCCC)CCCC.[Br-] + CCCCCCCCCCCC[N+](C)(C)C.[Br-] + O
viscosity [mPa·s], 100 kPa
Conditions | x2 = 5.422e-05, x1 = 0.0001802 | x2 = 0.0001084, x1 = 0.0001801 | x2 = 0.0001626, x1 = 0.0001801 | x2 = 0.0002169, x1 = 0.0001801 | x2 = 0.0002711, x1 = 0.0001801 | x2 = 0.0003252, x1 = 0.0001801 | x2 = 0.0003794, x1 = 0.0001801 | x2 = 0.0004336, x1 = 0.0001801 | x2 = 0.0004878, x1 = 0.0001801 | x2 = 0.000542, x1 = 0.0001801
293.15 K | 1.056 | 1.057 | 1.059 | 1.061 | 1.061 | 1.062 | 1.062 | 1.063 | 1.063 | 1.063
298.15 K | 0.939 | 0.942 | 0.943 | 0.945 | 0.946 | 0.946 | 0.948 | 0.949 | 0.95 | 0.951
303.15 K | 0.824 | 0.825 | 0.826 | 0.826 | 0.827 | 0.827 | 0.828 | 0.828 | 0.828 | 0.828
308.15 K | 0.742 | 0.744 | 0.745 | 0.746 | 0.746 | 0.746 | 0.747 | 0.747 | 0.747 | 0.747
313.15 K | 0.675 | 0.676 | 0.677 | 0.677 | 0.678 | 0.678 | 0.678 | 0.678 | 0.678 | 0.679
318.15 K | 0.62 | 0.621 | 0.621 | 0.621 | 0.622 | 0.622 | 0.622 | 0.622 | 0.622 | 0.623

CCCCCCCC(=O)[O-].c1c[nH+]c[nH]1 + CC#N
101.3 kPa
Conditions | viscosity [mPa·s]
293.15 K, x2 = 0.298 | 37.82
293.15 K, x2 = 0.499 | 17.94
293.15 K, x2 = 0.5995 | 10.6
293.15 K, x2 = 0.8996 | 1.201
303.15 K, x2 = 0 | 56.48
303.15 K, x2 = 0.1044 | 45.4
303.15 K, x2 = 0.5995 | 9.6
308.15 K, x2 = 0.499 | 12.8
318.15 K, x2 = 0.298 | 18.21
318.15 K, x2 = 0.4005 | 14.1
323.15 K, x2 = 0.499 | 10.2
323.15 K, x2 = 0.5995 | 7.6

CCCCCCCCOS(=O)(=O)[O-].CC[n+]1ccn(C)c1 + O + O=S(=O)([O-])[O-].[K+].[K+]
101 kPa, frequency 0.0005 MHz, x2 = 0.7992, x3 = 0.000271
Conditions | electrical conductivity [S/m]
283.15 K | 0.565
285.15 K | 0.611
288.15 K | 0.685
291.15 K | 0.763
293.15 K | 0.818
298.15 K | 0.965
303.15 K | 1.13
313.15 K | 1.49
323.15 K | 1.91
333.15 K | 2.43
343.15 K | 2.94
353.15 K | 3.49
358.15 K | 3.81
363.15 K | 4.13

101 kPa, x2 = 0.7992, x3 = 0.000271
Conditions | viscosity [mPa·s]
298.15 K | 70.4
303.15 K | 54.1
308.15 K | 42.26
318.15 K | 26.98
328.15 K | 18.12
338.15 K | 12.69

CCCCCC[n+]1ccn(C)c1.[Br-] + CC#N
viscosity [mPa·s], 101 kPa
Conditions | 288.15 K | 298.15 K | 308.15 K | 318.15 K
x1 = 0.004174 | 0.403 | 0.364 | 0.333 | 0.306
x1 = 0.008131 | 0.424 | 0.383 | 0.35 | 0.322
x1 = 0.01172 | 0.424 | 0.389 | 0.371 | 0.342

CCCCCC[n+]1ccn(C)c1.O=S(=O)([N-]S(=O)(=O)C(F)(F)F)C(F)(F)F + CN(CCO)CCO
101 kPa
Conditions | viscosity [mPa·s]
303.15 K, x2 = 0 | 58.3
303.15 K, x2 = 0.801 | 49.3
308.15 K, x2 = 0.0989 | 45.6
308.15 K, x2 = 0.3999 | 34
313.15 K, x2 = 0.3999 | 31.4
313.15 K, x2 = 0.6075 | 30
313.15 K, x2 = 0.899 | 36.2
318.15 K, x2 = 0.7049 | 25.3
323.15 K, x2 = 0.2977 | 24.1
323.15 K, x2 = 0.7049 | 22.9

NC=O + CCCC[n+]1ccn(C)c1.F[B-](F)(F)F
101 kPa
Conditions | viscosity [mPa·s]
293.15 K, x2 = 0 | 3.66
293.15 K, x2 = 0.2758 | 10.51
293.15 K, x2 = 0.3629 | 16.75
293.15 K, x2 = 0.5095 | 31.8
293.15 K, x2 = 0.569 | 39.6
298.15 K, x2 = 0.2758 | 9.47
298.15 K, x2 = 0.7588 | 56.7
298.15 K, x2 = 0.8107 | 64.8
303.15 K, x2 = 0.4499 | 17.48
303.15 K, x2 = 0.8107 | 50.9
303.15 K, x2 = 0.8626 | 57.3
303.15 K, x2 = 0.9313 | 66.4
308.15 K, x2 = 0.2758 | 7.5
308.15 K, x2 = 0.4499 | 14.74
308.15 K, x2 = 0.9313 | 51.2
313.15 K, x2 = 0.2054 | 4.61
313.15 K, x2 = 0.3629 | 8.75
313.15 K, x2 = 0.4499 | 11.81
318.15 K, x2 = 0.2758 | 5.08
318.15 K, x2 = 0.569 | 14.1
318.15 K, x2 = 0.6639 | 18.31
318.15 K, x2 = 0.8626 | 29.35

CCCCCC[n+]1ccn(C)c1.O=S(=O)([N-]S(=O)(=O)C(F)(F)F)C(F)(F)F + CC#N
298.15 K, 100 kPa
Conditions | electrical conductivity [S/m]
x1 = 0.03801 | 3.3
x1 = 0.0581 | 3.7
x1 = 0.08404 | 4
x1 = 0.1205 | 3.6
x1 = 0.1763 | 2.8
